Where no end group is shown, it is not given here.
Legend:
[1] = Tejada G Md et al (2015); cited from earlier work
[2] = therapeutic doses; cited from earlier work
HS-rats = type: in vivo
Protocol: This study was carried out on 46 male Wistar rats (Charles River Ltd, Margate, UK) weighing 230-350 g receiving a standard diet and water ad libitum. Hemorrhagic shock and quantification of organ injury and dysfunction were performed as described previously in Sordi R et al (2017) Ann Surg, 265(2):408-417. Rats were anesthetized by sodium thiopentone (120 mg/kg i.p. for induction, followed by 10 mg/kg i.v. for maintenance). Cannulation of the trachea, femoral artery (for measuring blood pressure), and carotid arteries (for blood withdrawal), jugular vein (for drug administration), and bladder (for collecting urine) were performed. Blood (up to 1 mL/min) was withdrawn via the cannula inserted in the carotid artery in order to achieve a fall in mean arterial pressure (MAP) to 27 to 32 mmHg. Thereafter, MAP was maintained at this level for a period of 90 min either by further withdrawal of blood during the compensation phase or administration shed blood during the decompensation phase. At 90 min after initiation of hemorrhage (or when 25% of the shed blood had to be re-injected to sustain MAP at 27 to 32 mmHg), animals were resuscitated with the remaining shed blood (mixed with 100 IU/mL heparinized saline) (over a period of 5 min) plus a volume of Ringer's lactate identical to the volume of blood spent during decompensation. During the last 3 h of resuscitation, urine was obtained for the estimation of creatinine clearance. Then, blood samples were collected via the carotid artery for measurement of lactate (Accutrend Plus Meter, Roche Diagnostics, West Sussex, UK) and organ injury/dysfunction parameters. Under deep anesthesia, the heart was removed to terminate the experiment. Blood samples were centrifuged to separate serum, which was used for the determination of urea, creatinine, aspartate aminotransferase (AST), alanine aminotransferase (ALT), lipase, amylase and creatine kinase (CK) by an external contract research facility (IDEXX Laboratories Ltd, West Yorkshire, UK) in a blinded fashion. In addition, lung, kidney and liver samples were taken and stored at −80° C. for further analysis. Sham-operated rats were used as control and underwent identical surgical procedures, but without hemorrhage or resuscitation. Blood pressures during the experiment were measured by Powerlab®, and recorded and analyzed by Labchart® (AD instruments Ltd, Dunedin, New Zealand).
The following groups were studied: Sham+vehicle (n=11), sham+Pep19-4LF (n=6), HS+vehicle (n=12), HS+Pep19-4LF-LD (n=8), HS+Pep19-4LF-HD (n=8), HS+Pep19-2.5-HD (n=8). Rats were administered vehicle (saline 1.5 ml/kg/h) or Pep19-4LF (low dose (LD)=66 μg/kg×h; high dose (HD)=333 μg/kg×h) or Pep19-2.5 (high dose (HD)=333 μg/kg×h) continuously for 4 h after resuscitation using infusion pump for rodents (PHD2000, 70-2000; Harvard apparatus Massachusetts, U.S). 11 rats were excluded from data analysis due to surgical/technical issues (n=5) prior to onset of HS and death during resuscitation (n=6). The doses of Pep19-4LF and Pep19-2.5 used in this study were based on efficacy seen in previous in vitro and in vivo studies (Schuerholz T et al (2013) Crit Care, 17(1):R3; Tejada G Md et al (2015) Sci Rep, 5:14292; Martin L et al (2015) PLoS One, 10(5):e0127584; Martin L et al (2015) PLoS One, 10(11):e0143583).

human red blood cells = experiment: Hemolysis assay; type: cell-based; conditions: concentrations of up to 100 μg/ml, 37° C., 30 min
Protocol: Red blood cells (RBC) were obtained from citrated human blood by centrifugation (1,500×g; 10 min), washed three times with isotonic 20 mM phosphate-NaCl buffer (pH 7.4), and suspended in the same buffer at a concentration equivalent to 5% of the normal hematocrit. Forty-microliter aliquots of this RBC suspension were added to 0.96 ml of Pep19-4LF dilutions prepared in the same isotonic phosphate solution, incubated at 37° C. for 30 min, and centrifuged (1,500×g, 10 min). The supernatants were analyzed spectrophotometrically (with absorbance at 543 nm) for hemoglobin, and results were expressed as the percentage released with respect to sonicated controls (100% release) or controls processed without peptide (0% release).

[3] = HS-rats, high dose 333 μg/kg×h i.v., 4 h after HS, vs vehicle

Substance	effects of LPS and lipoproteins [1]	toxicity limiting therapeutic use in man [2]	liver injury caused by HS (HS-rats; HS-rats)	pancreatic injury caused by HS (HS-rats; HS-rats)	renal dysfunction caused by HS (HS-rats; HS-rats)	decline in MAP during the resuscitation period (HS-rats; HS-rats, high dose 333 μg/kg×h i.v. continuously for 4 h after resuscitation, vs HS+vehicle)	organ injury and dysfunction caused by HS (HS-rats; [3])	rise in lactate caused by HS (HS-rats; [3])	MAP in sham-operated rats (HS-rats; sham-operated rats, high dose 333 μg/kg×h)	hemolysis (hemoglobin release) (human red blood cells)
LL-37: cathelicidin-derived human AMP (host-defence/antimicrobial peptide) [reference compound]	neutralize	systemic toxicity								
GCKKYRRFRWKFKGKFWFWG (20-amino acid peptide, Pep19-2.5) [20-mer linear synthetic antimicrobial peptide based on Limulus anti-LPS factor]	neutralize		significantly attenuated	significantly attenuated	significantly attenuated	significantly attenuated	significantly attenuated	significantly attenuated		
GKKYRRFRWKFKGKLFLFG-NH2 [Pep19-4LF, GKKYRRFRWKFKGKLFLFG]									had no effect	no considerable degree of hemolysis

— patent publication US20190092814A1, “Peptide” (priority 2017, published 2019)
